Results: patent US6872517B2, “Early diagnosis of cancerous and precancerous conditions by leakage of signature peptides and carbohydrates into the bloodstream” (Lankenau Institute for Medical Research, priority 2000, dated 2005)

How the values were obtained:
[1] = test system: DMH-treated colon; test: Barrier function of DMH-treated colon (Rt, 14C-D-mannitol flux, aberrant crypts); assay type: in vivo, rat
From the text: In addition, however, weekly changes in barrier function of DMH-treated colon were examined, with an emphasis on assessing that function by means of electrophysiology (Rt) and transepithelial flux of ^14C-D-mannitol.

[2] = test system: occludin; details: cited from earlier work
[3] = test system: LLC-PK1; details: cited from earlier work
[4] = test system: renal epithelial cell line; details: cited from earlier work
[5] = test system: rat colon epithelium; test: Increased luminal EGF in rat colon; assay type: in vivo
From the text: The biological significance here is that luminal fluids of many epithelial tissues contain very high levels of certain growth factors (Barnard et al., 1995; Jorgenson et al., 1990; Nexo et al., 1992; Mroczkowski and Reich, 1993), whereas the receptors for these growth factors are normally found on the abluminal cell surface. (Bishop and Wen, 1994; Muto et al., 1991; Thompson, 1988; Scheving et al., 1989). […] (Mullin, 1997). […] This is a direct consequence of the carcinogen's effect on colonic crypt epithelial TJs as described below.

[6] = as weeks of DMH exposure progressed

## CNNC [DMH, dimethylhydrazine]
[1]; [6]
  transepithelial electrical resistance (Rt): irregular but significant decline
  transepithelial flux of 14C-D-mannitol: rise
[1]; with increasing weeks of DMH exposure
  number of aberrant colon crypts: increased in number

## CCCCCCCCCCCCCC(=O)O[C@@H]1[C@@H](C)[C@@]2(O)[C@@H](C=C(CO)C[C@]3(O)C(=O)C(C)=C[C@@H]23)[C@@H]2C(C)(C)[C@]12OC(C)=O [TPA]
[2]; immunofluorescence
  ZO-1 expression: down regulated
  localization of occludin: very little change
[2]; in association with increased TJ permeability
  threonine phosphorylation state of occludin: decrease
[3]; LLC-PK1 cell line
  transepithelial electrical resistance (Rt): rapid, dose dependent decrease
[3]; TPA-treated cell sheets, not control cultures
  penetration of tight junctions by ruthenium red: able to penetrate
[3]; TPA-treated cell sheets
  size of molecules the TJs became leaky to: ≤ 2 million
[3]; TPA-treated epithelial cell sheet vs control cell sheet
  crossing of paracellular markers D-mannitol (mw 182) and polyethylene glycol (mw 4000): much more rapidly
[3]; chronic exposure, 4 days or greater
  morphology after chronic exposure: polyp-like, multilayered foci
[4]
  transepithelial leakiness to salts: capable of causing transepithelial leakiness to salts

## EGF: Epidermal Growth Factor, a growth factor (NSDSECPLSHDGYCLHDGVCMYIEALDKYACNCVVGYIGERCQYRDLKWWELR; Epidermal growth factor; UniProt P01133 971-1023, looked up)
[5]; colon treated with dimethylhydrazine, luminal EGF increased
  carcinomas in carcinogen-treated rat colon: greater number and size of carcinomas
[5]; increased EGF concentration in colonic lumen
  effect on normal rat colon epithelium: does not produce any observed effect
